Holding throughout (format): functional, organism-based
In assay [1] the test system is Human immunodeficiency virus 1. Nature of the assay: Antiviral activity against HIV-1 strain IIIB infected in human MT4 cells assessed as protection against virus-induced cytopathicity after 5 days by MTT assay. To be noted: Human immunodeficiency virus 1, IIIB, MT4, 120 h. (In general: Damage to the host cells serves as the signal in cytopathic effect assays.)
For assay [2], the system named is Human immunodeficiency virus 1. Nature of the assay: Antiviral activity against NNRTI-resistant HIV-1 RES056 harboring RT K103N/Y181C mutant infected in human MT4 cells assessed as protection against virus-induced cytopathogenicity after 5 days by MTT assay. To be noted: Human immunodeficiency virus 1, RES056, MT4, 120 h.
Assay [3] concerns Human immunodeficiency virus 1. The assay can be described thus: Antiviral activity against HIV-1 harboring RT L100I mutant infected in human MT4 cells assessed as protection against virus-induced cytopathogenicity after 5 days by MTT assay. To be noted: Human immunodeficiency virus 1, MT4, 120 h.
For assay [4], the system named is Human immunodeficiency virus 1. The assay can be described thus: Antiviral activity against HIV-1 harboring RT K103N mutant infected in human MT4 cells assessed as protection against virus-induced cytopathogenicity after 5 days by MTT assay. The settings on record: Human immunodeficiency virus 1, MT4, 120 h.
Assay [5] concerns Human immunodeficiency virus 1. Nature of the assay: Antiviral activity against HIV-1 harboring RT Y181C mutant infected in human MT4 cells assessed as protection against virus-induced cytopathogenicity after 5 days by MTT assay. The settings on record: Human immunodeficiency virus 1, MT4, 120 h.
In assay [6] the test system is Human immunodeficiency virus 1. Nature of the assay: Antiviral activity against HIV-1 harboring RT Y188L mutant infected in human MT4 cells assessed as protection against virus-induced cytopathogenicity after 5 days by MTT assay. The settings on record: Human immunodeficiency virus 1, MT4, 120 h.
In assay [7] the test system is Human immunodeficiency virus 1. The assay can be described thus: Antiviral activity against HIV-1 harboring RT E138K mutant infected in human MT4 cells assessed as protection against virus-induced cytopathogenicity after 5 days by MTT assay. To be noted: Human immunodeficiency virus 1, MT4, 120 h.
Assay [8] concerns Human immunodeficiency virus 1. Nature of the assay: Antiviral activity against HIV-1 harboring RT F227L/V106A mutant infected in human MT4 cells assessed as protection against virus-induced cytopathogenicity after 5 days by MTT assay. To be noted: Human immunodeficiency virus 1, MT4, 120 h.

The values below come from ChEMBL document CHEMBL4834412, “2,4,5-Trisubstituted Pyrimidines as Potent HIV-1 NNRTIs: Rational Design, Synthesis, Activity Evaluation, and Crystallographic Studies” (J Med Chem, 2021).

One may read the EC50 as the concentration needed to bring the measured effect to its halfway point.

Turning to `Cc1cc(C#N)cc(C)c1Oc1nc(NC2CCN(Cc3ccc(C(N)=O)cc3)CC2)ncc1-c1cccs1`, the concentration giving a half-maximal response (EC50) amounted to 3.34 nM in assay [1]; 115 nM in assay [2]; 14.7 nM in assay [3]; 5.15 nM in assay [4]; 10.2 nM in assay [5]; 17.9 nM in assay [6]. In addition, the EC50 came out at 8.85 nM in assay [7] and 75.4 nM in assay [8].
Regarding `Cc1cc(/C=C/C#N)cc(C)c1Oc1nc(NC2CCN(Cc3ccc(S(C)(=O)=O)cc3)CC2)ncc1-c1cccnc1`, the EC50 in assay [1] amounted to 4.57 nM; in assay [2] it was 22.4 nM; in assay [3], 10.7 nM; in assay [4], 5.42 nM; in assay [5] it was 10.3 nM; in assay [6], 22.7 nM. Besides, the EC50 stood at 12.2 nM in assay [7] and 13.2 nM in assay [8].
Regarding `Cc1cc(/C=C/C#N)cc(C)c1Oc1nc(NC2CCN(Cc3ccc(S(N)(=O)=O)cc3)CC2)ncc1-c1ccncc1`, the EC50 was determined as 4.6 nM in assay [1]; 22.9 nM in assay [2]; 5.87 nM in assay [3]; 4.91 nM in assay [4]; 24.2 nM in assay [5]; 27.1 nM in assay [6]. In addition, the EC50 in assay [7] was 11.1 nM; in assay [8] it was 23.7 nM.
Consider `Cc1cc(C#N)cc(C)c1Oc1nc(NC2CCN(Cc3ccc(S(N)(=O)=O)cc3)CC2)ncc1-c1ccoc1`, for which the EC50 in assay [1] was 2.51 nM; in assay [2], 161 nM; in assay [3], 13.6 nM; in assay [4] it was 3 nM; in assay [5], 9.35 nM; in assay [6], 15.3 nM. For the same molecule, the EC50 worked out at 13 nM in assay [7] and 63.2 nM in assay [8].
Take `Cc1cc(C#N)cc(C)c1Oc1nc(NC2CCN(Cc3ccc(S(C)(=O)=O)cc3)CC2)ncc1-c1ccccc1`: the EC50 in assay [1] came out at 4.93 nM; in assay [2] it was 590 nM; in assay [3], 71.7 nM; in assay [4] it was 11.7 nM; in assay [5] it was 33.7 nM; in assay [6], 35.5 nM. Further, the EC50 in assay [7] worked out at 32.1 nM; in assay [8], 218 nM.
Consider `Cc1cc(/C=C/C#N)cc(C)c1Oc1nc(NC2CCN(Cc3ccc(C(N)=O)cc3)CC2)ncc1-c1ccc(F)nc1`, for which the EC50 in assay [1] amounted to 4.56 nM; in assay [2] it was 20.4 nM; in assay [3], 5.76 nM; in assay [4], 5.97 nM; in assay [5] it was 10.3 nM; in assay [6] it was 30.1 nM. Moreover, the EC50 in assay [7] turned out to be 11.7 nM; in assay [8] it was 27.5 nM.
Turning to `Cc1cc(/C=C/C#N)cc(C)c1Oc1nc(NC2CCN(Cc3ccc(C(N)=O)cc3)CC2)ncc1-c1ccncc1`, the concentration for a half-maximal effect (EC50) was found to be 4.19 nM in assay [1]; 23.3 nM in assay [2]; 5.62 nM in assay [3]; 3.84 nM in assay [4]; 7.14 nM in assay [5]; 23 nM in assay [6]. Also, the 50% effective concentration (EC50) in assay [7] is 8.66 nM; in assay [8], 35.5 nM.
On to `Cc1cc(C#N)cc(C)c1Oc1nc(NC2CCN(Cc3ccc(C(N)=O)cc3)CC2)ncc1-c1ccsc1`, for which the EC50 in assay [1] was 4.22 nM; in assay [2], 415 nM; in assay [3] it was 62.6 nM; in assay [4], 5.52 nM; in assay [5], 26.4 nM; in assay [6], 30 nM. Further, the EC50 in assay [7] is 22 nM; in assay [8], 325 nM.
For `Cc1cc(C#N)cc(C)c1Oc1nc(NC2CCN(Cc3ccc(S(C)(=O)=O)cc3)CC2)ncc1-c1ccncc1`, the EC50 came out at 5.93 nM in assay [1]; 244 nM in assay [2]; 17.4 nM in assay [3]; 4.4 nM in assay [4]; 10.8 nM in assay [5]; 18.5 nM in assay [6]. For the same molecule, the values for the EC50 in assay [7] and in assay [8] were 9.19 nM and 79.4 nM, respectively.
For `Cc1cc(C#N)cc(C)c1Oc1nc(NC2CCN(Cc3ccc(S(N)(=O)=O)cc3)CC2)ncc1-c1ccccc1`, the half-maximal effective concentration (EC50) in assay [1] came to 5.14 nM; in assay [2] it was 427 nM; in assay [3], 53.2 nM; in assay [4], 7.74 nM; in assay [5], 26.2 nM; in assay [6] it was 33.2 nM. For the same molecule, the values for the EC50 in assay [7] and in assay [8] were 24.5 nM and 219 nM, respectively.
